Data as given in patent US20230312556A1, “ARYLAMIDE COMPOUND, PHARMACEUTICAL COMPOSITION COMPRISING SAME, AND PREPARATION METHOD THEREFOR AND USE THEREOF” (SICHUAN KELUN-BIOTECH BIOPHARMACEUTICAL CO., LTD., priority 2020, published 2023).

Columns and labels:
[1] = system: human hepatocellular carcinoma cell HepG2 (NRAS-Q61K mutation); assay: Cancer cell proliferation inhibition assay, HepG2; type: cell-based; settings: 72 h incubation, Cell Titer Glo
Source text: (§1) The inhibitory effects of the compounds of the present invention on cancer cell proliferation were further evaluated by testing the effects of the compounds of the present invention on the growth of cancer cells.
(§2) In this example, human melanoma cell A375 (BRAF-V600E mutation, purchased from the Cell Bank of the Chinese Academy of Sciences) and human hepatocellular carcinoma cell HepG2 (NRAS-Q61K mutation, purchased from ATCC, USA) were employed.
(§3) In this example, the test compounds at various concentrations (100000 nM, 30000 nM, 10000 nM, 3000 nM, 1000 nM, 300 nM, 100 nM, 30 nM, 10 nM) were added to the above cells, and the incubation was performed for 72 h. The inhibitory activity of the compounds was tested by measuring ATP in living cells using the Cell Titer Glo Kit (Promega).
(§4) The IC50 values of the compounds of the present invention for each tested cell were determined, and the test results are as follows: […]

[2] = system: human melanoma cell A375 (BRAF-V600E mutation); assay: Cancer cell proliferation inhibition assay, A375; type: cell-based; settings: A-375, 72 h incubation, Cell Titer Glo
Source text: as §1, §2, §3, §4

`Cc1ccc2c(Nc3cccc(Cl)c3F)nccc2c1NC(=O)c1cc(OCCN2CCOCC2)cc2c(N)ncnc12` [Compound 79, 4-amino-N-(1-((3-chloro-2-fluorophenyl)amino)-6-methylisoquinolin-5-yl)-6-(2-morpholinoethoxy)quinazoline-8-carboxamide] was tested, and the IC50 [1] was 145 ± 12.3 nM and the IC50 [2] was 72.2 ± 13 nM.
Work on `Cc1ccc2c(Nc3ccc(C#N)cc3F)nccc2c1NC(=O)c1cccc2c(N)ncnc12` [Compound 78, 4-amino-N-(1-((4-cyano-2-fluorophenyl)amino)-6-methylisoquinolin-5-yl)quinazoline-8-carboxamide] yielded an IC50 [1] of 56.4 ± 5.8 nM and an IC50 [2] of 63.5 ± 2.6 nM.
In the case of `Cc1ccc2c(Nc3cc(Br)ccc3F)nccc2c1NC(=O)c1cccc2c(N)ncnc12` [Compound 91, 4-amino-N-(1-((5-bromo-2-fluorophenyl)amino)-6-methylisoquinolin-5-yl)quinazoline-8-carboxamide], the IC50 [1] is reported as 140 ± 17 nM and the IC50 [2] is reported as 87.1 ± 10.4 nM.
For `Cc1ccc2c(Nc3ccc(Cl)cc3F)nccc2c1NC(=O)c1cnc2c(N)ncnn12` [Compound 55, 4-amino-N-(1-((4-chloro-2-fluorophenyl)amino)-6-methylisoquinolin-5-yl)imidazo[2,1-f][1,2,4]triazine-7-carboxamide], the IC50 [1] was 30.4 ± 4.3 nM.
`Cc1ccc2c(Nc3cccc(C#N)c3F)nccc2c1NC(=O)c1cccc2c(N)ncnc12` [Compound 83, 4-amino-N-(1-((3-cyano-2-fluorophenyl)amino)-6-methylisoquinolin-5-yl)quinazoline-8-carboxamide] was tested, and the IC50 [1] was 50.5 ± 8.48 nM and the IC50 [2] was 61.9 ± 6.7 nM.
For `Cc1ccc2c(Nc3cc(Cl)ccc3F)nccc2c1NC(=O)c1cc(F)cc2c(N)ncnc12` [Compound 84, 4-amino-N-(1-((5-chloro-2-fluorophenyl)amino)-6-methylisoquinolin-5-yl)-6-fluoroquinazoline-8-carboxamide], the IC50 [1] was 67.2 ± 9.93 nM and the IC50 [2] was 165 ± 6.5 nM.
For `Cc1cc(C(=O)Nc2c(C)ccc3c(Nc4cccc(Cl)c4F)nccc23)c2ncnc(N)c2c1` [Compound 45, 4-amino-N-(1-((3-chloro-2-fluorophenyl)amino)-6-methylisoquinolin-5-yl)-6-methylquinazoline-8-carboxamide], the IC50 [1] was 64.3 ± 5.08 nM and the IC50 [2] was 74.2 ± 3.5 nM.
With `Cc1ccc2c(Nc3cc(C#N)ccc3F)nccc2c1NC(=O)c1cccc2c(N)ncnc12` [Compound 80, 4-amino-N-(1-((5-cyano-2-fluorophenyl)amino)-6-methylisoquinolin-5-yl)quinazoline-8-carboxamide] the IC50 [1] was 75.4 ± 6 nM and the IC50 [2] was 167 ± 8.47 nM.
For `Cc1ccc2c(C(O)c3ccccc3Cl)nccc2c1NC(=O)c1cccc2c(N)ncnc12` (stereo not drawn) [Compound 24, 4-amino-N-(1-((2-chlorophenyl)(hydroxy)methyl)-6-methylisoquinolin-5-yl)quinazoline-8-carboxamide], the IC50 [2] was 70.7 ± 6.15 nM.
`Cc1ccc2c(Nc3ccc4c(c3)CN(C)CC4)nccc2c1NC(=O)c1cccc2c(N)ncnc12` [Compound 82, 4-amino-N-(6-methyl-1-((2-methyl-1,2,3,4-tetrahydroisoquinolin-7-yl)amino)isoquinolin-5-yl)quinazoline-8-carboxamide] showed an IC50 [1] of 245 ± 27.3 nM and an IC50 [2] of 141 ± 44.1 nM.
`Cc1ccc2c(Nc3c(F)c(F)cc(F)c3F)nccc2c1NC(=O)c1cccc2c(N)ncnc12` [Compound 95, 4-amino-N-(6-methyl-1-((2,3,5,6-tetrafluorophenyl)amino)isoquinolin-5-yl)quinazoline-8-carboxamide] showed an IC50 [1] of 69 ± 18.9 nM.
Compound `Cc1ccc2c(Nc3cc(F)c(F)c(F)c3F)nccc2c1NC(=O)c1cccc2c(N)ncnc12` [Compound 96, 4-amino-N-(6-methyl-1-((2,3,4,5-tetrafluorophenyl)amino)isoquinolin-5-yl)quinazoline-8-carboxamide] has an IC50 [1] of 119 ± 29.3 nM.
For `COc1ccc(F)c(Nc2nccc3c(NC(=O)c4cccc5c(N)ncnc45)c(C)ccc23)c1` [Compound 87, 4-amino-N-(1-((2-fluoro-5-methoxyphenyl)amino)-6-methylisoquinolin-5-yl)quinazoline-8-carboxamide], the IC50 [1] was 37.7 ± 7.05 nM and the IC50 [2] was 56 ± 2.5 nM.
`Cc1ccc2c(Nc3cccc(Cl)c3F)nccc2c1NC(=O)c1ccnc2c(N)ncnc12` [Compound 81, 4-amino-N-(1-((3-chloro-2-fluorophenyl)amino)-6-methylisoquinolin-5-yl)pyrido[3,2-d]pyrimidine-8-carboxamide] showed an IC50 [1] of 222 ± 29.8 nM.
In the case of `COc1ccc(Nc2nccc3c(NC(=O)c4cccc5c(N)ncnc45)c(C)ccc23)cc1` [Compound 57, 4-amino-N-(1-((4-methoxyphenyl)amino)-6-methylisoquinolin-5-yl)quinazoline-8-carboxamide], the IC50 [1] is reported as 24.3 ± 3.3 nM and the IC50 [2] is reported as 66.1 ± 17 nM.
Work on `Cc1ccc(Nc2nccc3c(NC(=O)c4cccc5c(N)ncnc45)c(C)ccc23)c(F)c1` [Compound 88, 4-amino-N-(1-((2-fluoro-4-methylphenyl)amino)-6-methylisoquinolin-5-yl)quinazoline-8-carboxamide] yielded an IC50 [1] of 70.2 ± 9.8 nM and an IC50 [2] of 55.4 ± 8 nM.
Compound `Cc1ccc(Nc2nccc3c(NC(=O)c4cccc5c(N)ncnc45)c(C)ccc23)cc1` [Compound 65, 4-amino-N-(6-methyl-1-(p-tolylamino)isoquinolin-5-yl)quinazoline-8-carboxamide] has an IC50 [1] of 38.8 ± 3 nM and an IC50 [2] of 47.1 ± 9.4 nM.
Compound `Cc1ccc2c(Nc3cccc(Cl)c3)nccc2c1NC(=O)c1cnc2c(N)ncnn12` [Compound 12, 4-amino-N-(1-((3-chlorophenyl)amino)-6-methylisoquinolin-5-yl)imidazo[2,1-f][1,2,4]triazine-7-carboxamide] has an IC50 [1] of 13.9 ± 1.7 nM.
For `Cc1ccc2c(Nc3cc(F)ccc3F)nccc2c1NC(=O)c1cccc2c(N)ncnc12` [Compound 72, 4-amino-N-(1-((2,5-difluorophenyl)amino)-6-methylisoquinolin-5-yl)quinazoline-8-carboxamide], the IC50 [1] was 64.3 ± 12.3 nM.
In the case of `Cc1ccc2c(Nc3ccnc(C(F)(F)F)c3)nccc2c1NC(=O)c1cccc2c(N)ncnc12` [Compound 71, 4-amino-N-(6-methyl-1-((2-(trifluoromethyl)pyridin-4-yl)amino)isoquinolin-5-yl)quinazoline-8-carboxamide], the IC50 [1] is reported as 53 ± 9.7 nM and the IC50 [2] is reported as 170 ± 13.8 nM.
In the case of `Cc1ccc2c(Nc3cccc(Cl)c3F)nccc2c1NC(=O)c1cc(N2CCN(C)CC2)cc2c(N)ncnc12` [Compound 54, 4-amino-N-(1-((3-chloro-2-fluorophenyl)amino)-6-methylisoquinolin-5-yl)-6-(4-methylpiperazin-1-yl)quinazoline-8-carboxamide], the IC50 [1] is reported as 95.6 ± 8.18 nM and the IC50 [2] is reported as 108 ± 19.9 nM.
`Cc1ccc2c(Nc3ccc(CN(C)C)c(C(F)(F)F)c3)nccc2c1NC(=O)c1cnc2c(N)ncnn12` [Compound 62, 4-amino-N-(1-((4-((dimethylamino)methyl)-3-(trifluoromethyl)phenyl)amino)-6-methylisoquinolin-5-yl)imidazo[2,1-f][1,2,4]triazine-7-carboxamide] showed an IC50 [1] of 82.2 ± 10.1 nM and an IC50 [2] of 49.1 ± 2.74 nM.
In the case of `Cc1ccc2c(Nc3cccc(Cl)c3F)nccc2c1NC(=O)c1cn(C)c2c(N)ncnc12` [Compound 101, 4-amino-N-(1-((3-chloro-2-fluorophenyl)amino)-6-methylisoquinolin-5-yl)-5-methyl-5H-pyrrolo[3,2-d]pyrimidine-7-carboxamide], the IC50 [1] is reported as 81.1 ± 4.5 nM.
Work on `Cc1ccc2c(Nc3cccc(OCCN4CCOCC4)c3F)nccc2c1NC(=O)c1cccc2c(N)ncnc12` [Compound 98, 4-amino-N-(1-((2-fluoro-3-(2-morpholinoethoxy)phenyl)amino)-6-methylisoquinolin-5-yl)quinazoline-8-carboxamide] yielded an IC50 [1] of 63.7 ± 4.4 nM.
